Assay results taken from paper PMC11778240, “Synthesis and preclinical evaluation of tigilanol tiglate analogs as latency-reversing agents for the eradication of HIV” (Science Advances, 2025).

Experiments:
[1] = tested on: mast cell tumors; settings: mast cell tumors in canines; cited from earlier work
[2] = tested on: interleukin-8; assay: IL-8 ELISA, A549 cells; assay type: cell-based, Human; settings: 24 hours
Experimental: Because SUW402 and SUW431 are potent activators of NF-κB, we used an enzyme-linked immunosorbent assay to measure their ability to up-regulate inflammatory cytokine production (tumor necrosis factor–α and interleukin-8). We stimulated A549 cells with SUW402 and SUW431 at the same concentrations used in the NF-κB activation assay: 500 and 50 nM (figs. S1 and S2). […] At 500 or 50 nM, both SUW402 and SUW431 produced only modest levels of interleukin-8, a 15 to 25% increase relative to the DMSO negative control.
Enzyme Linked Immunosorbent Assay (ELISA) for SUW402 and SUW431 mediated IL-8 and […]
In efforts to replicate the conditions of the in vitro NF -κB assay, 5 x 10^4 A549 cells were plated per well on Corning® 96-well Clear Round Bottom TC-treated Microplates in 180 μl of pre-warmed DMEM (4.5 g/L glucose, 10% FBS, and 1% Pen-Strep-Glutamine (100 X, 50 mg/mL)).
Following incubation at 37 °C in 5% CO2 for approximately 24 hours to allow for cell adherence, 1.8 μl of either SUW402 or SUW431 were added in triplicate to their respective wells to achieve a final compound concentration of either 50 nM or 500 nM, the two concentrations tested in the NF-κB assay. 24 hours after compound addition, the microplate containing cells treated with compound was spun at 1800 rpm for 3 minutes to allow for pelleting of cells and other debris before 150 μL of cellular supernatant was aspirated and transferred to a new Corning® 96 -well Clear Round Bottom TC-treated Microplate. Note that if the supernatant is not meant to be immediately analyzed, the microplate containing cellular supernatant should be paraf ilm, wrapped, and stored at -80 °C. Careful attention should be paid to avoiding freeze-thaw cycles. To quantify cytokine secretion within samples, dilutions were performed using Assay Buffer A included in the LEGEND MAX™ Human IL-8 ELISA Kit (Cat # 431507) and LEGEND MAX™ Human TNF-α ELISA Kit (Cat # 430207), respectively.
Immediately before running the assay, reagents were allowed to come to room temperature and diluted. Note that if the supernatant is frozen, it should be removed at this time and allowed to thaw. The 1X Wash Buffer was prepared by diluting the 20X Wash Buf fer with Invitrogen™ UltraPure™ DNase/RNase-Free Distilled Water. The lyophilized human IL-8 and TNF-α standards were reconstituted by adding the appropriate volume of Assay Buffer A to prepare the 20 ng/mL standard stock solutions. The reconstituted stand ards were allowed to sit at room temperature for 20 minutes before being gently vortexed to ensure complete mixing. To generate a standard curve for each cytokine, 500 μL of a 1,000 pg/mL top standard was prepared after which six two -fold serial dilutions of the top standard were performed in 1.7 mL microcentrifuge tubes using Assay […]

Compound	cure rate [1] [%]	IL-8 (ELISA) ([2]; 50 nM) [pg/mL]	IL-8 (ELISA) ([2]; 500 nM) [pg/mL]
C/C=C(\C)C(=O)O[C@@H]1[C@@H](C)[C@@]2(O)[C@H]([C@@H]3C(C)(C)[C@]13OC(=O)[C@@H](C)CC)[C@@H]1O[C@]1(CO)[C@@H](O)[C@]1(O)C(=O)C(C)=C[C@H]12 [EBC-46, Tigilanol tiglate]	≤ 88		
C/C=C(\C)C(=O)O[C@@H]1[C@@H](C)[C@@]2(O)[C@@H](C=C(CO)C[C@]3(O)C(=O)C(C)=C[C@@H]23)[C@@H]2C(C)(C)[C@]12OC(=O)[C@@H](C)CC [SUW402]		3352	3106
C/C=C(\C)C(=O)O[C@@H]1[C@@H](C)[C@@]2(O)[C@H]([C@@H]3C(C)(C)[C@]13OC(=O)Cc1cccc3ccccc13)[C@@H]1O[C@]1(CO)[C@@H](O)[C@]1(O)C(=O)C(C)=C[C@H]12 [SUW431]		3369	3232
